Laboratory results as given in PMC10816808, “Enhancement of the Antitumor and Antimetastatic Effect of Topotecan and Normalization of Blood Counts in Mice with Lewis Carcinoma by Tdp1 Inhibitors—New Usnic Acid Derivatives” (International Journal of Molecular Sciences, 2024).
Values joined by “and” are separate entries in the source; they are usually repeats but may differ in a detail not shown here. Equal values may be shown once.

Key:
[1] = Toxic effect in mice with Krebs-2 carcinoma (body weight, liver and spleen indices); assay type: in vivo; conditions: for Weight of an individual with ascites / Weight of an individual without ascites: individual animals, mice with Krebs-2; for organ index, Liver (group mean) / organ index, Spleen (group mean): mice with Krebs-2 carcinoma
Source text: We also studied the effect of topotecan, compound 7, and their combinations on changes in body weight of mice with LLC from days 1 to 18 after tumor transplantation and of mice with Krebs-2 carcinoma from days 1 to 8.
In addition, at the end of the experiments, we removed and weighed the liver and spleen, and calculated the liver and spleen indices.
The toxic effects of the substances were inferred from the changes in body weight during the experiment (the mice with LLC were weighed on days 1, 3, 5, 7, 10, 12, 14, 16, and 18 after grafting) and the liver and spleen weight indices at the end of the experiment.

[2] = MTT cytotoxicity test, MCF-7; assay type: cell-based; conditions: human, MCF-7 cells (breast cancer), read-out: semitoxic concentration (CC50), MCF-7
Source text: (§1) Compounds 6 and 8 with a bromophenol residue in the enamine fragment have a weak or moderate effect on cell survival (Table 1 and Supplementary Figure S1).
(§2) Cytotoxicity of the compounds against human tumor cell lines: HeLa (cervical cancer), HCT-116 (colorectal cancer), A-549 (lung cancer), MCF-7 (breast cancer), T98G (glioblastoma), HepG2 (hepatocarcinoma), and nontumor cell lines: MRC-5 (lung fibroblasts) and HEK293A (human embryonic kidney) was examined using the MTT test. HCT-116 and MRC-5 cell lines were provided by the Cell Culture Bank of the State Research Center for Virology and Biotechnology Vector, Novosibirsk, Russia. A-549, MCF-7, and T98G cell lines were obtained from the Russian Cell Culture Collection (RCCC) Institute of Cytology RAS (St. Petersburg, Russia). HEK293A cells were purchased (ThermoFisher Scientific, Waltham, MA, USA).
(§3) The cell culture medium DMEM medium (Invitrogen, Carlsbad, CA, USA) contained 10% fetal bovine serum (FBS) (Invitrogen), penicillin (100 units/mL), and streptomycin (100 µg/mL). Cells were seeded into 96-well plates at 5000 cells per well and grown at 37 °C and 5% CO2 in a humid atmosphere. At 30–50% confluence, the tested compounds were added to the medium to a final DMSO content of 1%. Control wells contained 1% DMSO. To determine the cytotoxicity of Tdp1 inhibitors, the cells were treated with compounds with concentrations ranging from 1 to 100 µM for 72 h at 37 °C […]. All measurements were repeated a minimum of twice.

[3] = MTT cytotoxicity test, A-549; assay type: cell-based; conditions: human, A-549 cells (lung cancer), read-out: semitoxic concentration (CC50), A-549
Source text: as §1, §2, §3

[4] = tested on: Krebs-2 ascitic carcinoma; assay: Antitumor effect in the Krebs-2 ascitic carcinoma model; assay type: in vivo, mice; conditions: for average ascites weight: C57BL mice with Krebs-2, single dose on day 4; for average ascites weight / Average number of tumor cells in ascites: mean ± SD; for Ascites weight / Total number of tumor cells / Tumor cell concentration: individual animals; for Ascites weight / Total number of tumor cells / Tumor cell concentration / Average number of tumor cells in ascites: mice with Krebs-2
Source text: The Krebs-2 cancer cell line was obtained from the cell depository of the Institute of Cytology and Genetics SB RAS (Novosibirsk, Russia), and is maintained in mice as a transplanted tumor. Krebs-2 carcinoma is nonspecific to the different genetic constitutions of mice and is weakly immunogenic for mice of all strains. The biological source of Krebs-2 is the epithelial cells of the abdominal wall of the mouse. With intraperitoneal transplantation of tumor cells, an ascitic form is formed.
The effect of the drugs was assessed by the weight of ascites and the number of tumor cells in it.
Strain-nonspecific Krebs-2 ascitic carcinoma was grafted to C57BL mice. Tumor cells were suspended in 0.9% NaCl prior to grafting and injected intraperitoneally (2 million cells per mouse, in 0.2 mL). An ascitic tumor develops after intraperitoneal inoculation, has low immunogenicity, and produces no metastasis during the experiment at the used dose of tumor cells.
The mice were also divided into groups of 6–7 individuals. Treatment was carried out once on the 4th day after tumor transplantation: • - Group 1—Intact control—mice of this group were inoculated with a tumor, receiving 0.2 mL of saline intraperitoneally; • - Group 2—DMSO-Tween-80—mice were injected once intragastrically with a probe 200 μL of a solution containing saline, Tween-80 (10%), and DMSO (15%); • - Group 3—DMSO-Tween-80—mice were injected once intraperitoneally with a solvent for 7; • - Group 4—Tpc (aqueous solution)—mice were injected once intraperitoneally with 200 µL of Tpc at a single dose of 1 mg/kg; • - Group 5—Tpc + 7 i/g—mice received Tpc once as described for groups 3 and 7 in the form of 200 µL of suspension in Tween-80-DMSO once intragastrically at a dose of 50 mg/kg; • - Group 6—Tpc + 7 i/p—mice were injected with topotecan once as described for groups 3 and 7 in the form of 200 µL of suspension Tween-80-DMSO once intraperitoneally at a dose of 50 mg/kg; • - Group 7—7 i/g—mice were injected with 7 as described for group 5; • - Group 8—7 i/p—mice were injected with 7 as described for group 6.
The ascitic tumor weight and the cancer cell concentration in the ascitic fluid (as counted with a Goryaev chamber) were evaluated at the end of the experiment to estimate the effects of the substances. To prepare the samples for cell counting with a Goryaev chamber, 10 μL of the ascitic fluid was combined with 400 μL of saline (a 40-fold dilution). Cells were counted in five large squares, each divided into 16 small squares (80 squares in total) at a low magnification.

T98G = assay: Topotecan cytotoxicity with Tdp1 inhibitor (MTT), T98G; assay type: cell-based; conditions: Homo sapiens, topotecan alone or in the presence of 5 µM Tdp1 inhibitor
Source text: (§4) Tdp1 inhibitors combined with topotecan dramatically reduce tumor metastasis. Usnic acid derivatives of the enamine and hydrazonothiazole series turned out to be promising sensitizers of the action of topotecan both on cultured cell lines and on mouse tumors in vivo [30, 32]. We studied the ability of the usnic acid derivatives to sensitize the effects of topotecan on the same panel of cell lines. We used two non-cancerous cell lines MRC-5 and HEK293A, including previously obtained HEK293A Tdp1 knockout cells (for compound 7), and cancerous cell lines HeLa, HCT-116, A-549, MCF-7, T98G. We found the most pronounced and reliable sensitizing effect on cancerous cell lines HeLa, HCT-116, A-549, MCF-7 only for compound 7 (Table 2 and Figures S2 and S3).
as §2, with “HEK293A cells were purchased (ThermoFisher Scientific, Waltham, MA, USA).” left out

MCF-7 = assay: Topotecan cytotoxicity with Tdp1 inhibitor (MTT), MCF-7; assay type: cell-based; conditions: Homo sapiens, MCF7; topotecan alone or in the presence of 5 µM Tdp1 inhibitor
Source text: as §4
as §2, with “HEK293A cells were purchased (ThermoFisher Scientific, Waltham, MA, USA).” left out

HeLa = assay: Topotecan cytotoxicity with Tdp1 inhibitor (MTT), HeLa; assay type: cell-based; conditions: Homo sapiens, topotecan alone or in the presence of 5 µM Tdp1 inhibitor
Source text: as §4
as §2, with “HEK293A cells were purchased (ThermoFisher Scientific, Waltham, MA, USA).” left out

[5] = 7 50 mg/kg i/g, alone or with Tpc 1 mg/kg i/p
[6] = Tpc 1 mg/kg i/p and/or 7 50 mg/kg i/p

Row | SMILES | Weight of an individual with ascites [1, 6] | Weight of an individual without ascites [1, 6] | organ index, Liver (group mean) ([1]; Topotecan and/or 7 i/p) [%] | organ index, Spleen (group mean) ([1]; Topotecan and/or 7 i/p) [%] | average ascites weight [4, 6] | Ascites weight [4, 6] | Total number of tumor cells [4, 6] | Tumor cell concentration [4, 6] | Average number of tumor cells in ascites [4, 6] | other results
1 | C/C(NCCCc1cc(C(C)(C)C)c(O)c(C(C)(C)C)c1)=C1\C(=O)C=C2Oc3c(-c4csc(N/N=C/c5ccc(Br)cc5)n4)c(O)c(C)c(O)c3[C@@]2(C)C1=O [Compound 7, (4E)-10-{2-[(E)-2-[(4-bromophenyl)methylidene]hydrazin-1-yl]-1,3-thiazole-4-yl}-4-(1-{[3-(3,5-di-tret-butyl-4-hydroxyhenyl)propyl]amino}ethylidene)-11,13-dihydroxy-2,12-dimethyl-8-oxatricyclo [7.4.0.02,7]trideca-1(13),6,9,11-tetraen-3,5-dione] | 21.5 g and 22.2 g and 21.3 g and 22.1 g and 23.4 g and 24.9 g | 18.4 g and 19.8 g and 16.8 g and 16.6 g and 19.4 g and 18.2 g and 18.7 g | 4.1±0.3 | 1.0±0.1 | 4,1±1,4 g | 3.1 g and 2.4 g and 4.5 g and 5.5 g and 2.1 g and 5.2 g and 6.2 g | 204.6 million and 105.6 million and 234 million and 165 million and 44.1 million and 530.4 million and 576.6 million | 66 million/ml and 44 million/ml and 52 million/ml and 30 million/ml and 21 million/ml and 102 million/ml and 93 million/ml | 265,8±164,4 million | Weight of an individual with ascites [1, 5]: 24.5 g and 22.7 g and 21 g and 23.3 g; Weight of an individual without ascites [1, 5]: 19.9 g and 16.5 g and 16.4 g and 19.4 g and 18.8 g; organ index, Liver (group mean) ([1]; 7 i/g, alone or with Topotecan): 4.4±0.5%; organ index, Spleen (group mean) ([1]; 7 i/g, alone or with Topotecan): 1.2±0.1%; CC50 at 72 h [2]: > 100 µM; CC50 at 72 h [3]: > 100 µM; average ascites weight [4, 5]: 5±0,5 g; Ascites weight [4, 5]: 4.6 g and 6.2 g and 5.1 g and 4.5 g; Total number of tumor cells [4, 5]: 372.6 million and 403 million and 230 million and 209.1 million and 162 million; Tumor cell concentration [4, 5]: 81 million/ml and 65 million/ml and 50 million/ml and 41 million/ml and 36 million/ml; Average number of tumor cells in ascites [4, 5]: 275,3±90 million
2 | CC[C@@]1(O)C(=O)OCc2c1cc1n(c2=O)Cc2cc3c(CN(C)C)c(O)ccc3nc2-1 [Tpc, topotecan] | 21 g and 23.5 g and 23.4 g and 21.2 g and 22.9 g and 21.4 g and 21.9 g | 18.7 g and 17.9 g and 19.9 g and 19.2 g and 20 g and 19 g and 19.5 g | 4.8±0.6 | 1.3±0.2 | 3±0,9 g | 2.3 g and 5.6 g and 3.5 g and 2 g and 2.9 g and 2.4 g | 218.5 million and 459.2 million and 266 million and 182 million and 188.5 million and 120 million and 148.8 million | 95 million/ml and 82 million/ml and 76 million/ml and 91 million/ml and 65 million/ml and 50 million/ml and 62 million/ml | 226,1±78 million | CC50 (T98G): 2.5 µM; CC50 (MCF-7): 1.4 µM; CC50 (HeLa): 9.9 µM
